In test [1] the test system is CHO. Briefly: Cytotoxicity against CHO cells after 48 hrs by MTT assay. The note with it: Cricetulus griseus. The class given is cell-based.
For test [2], the system named is K562. Description: Cytotoxicity against human K562 cells after 48 hrs by MTT assay. It counts as functional, cell-based. The note with it: K562, 48 h. For orientation: Tetrazolium dyes change colour on reduction, which living cells bring about.
Test [3] concerns B16. Briefly: Cytotoxicity against mouse B16 cells after 48 hrs by MTT assay. Conditions: B16, 48 h. The class given is functional, cell-based.
A short description of test [4]: Cytotoxicity against mouse Mel-A cells after 48 hrs by MTT assay. The class given is cell-based.
In test [5] the test system is Bel-7402. Briefly: Cytotoxicity against human Bel7402 cells after 48 hrs by MTT assay. The class given is functional, cell-based. The note with it: Bel-7402, 48 h.
Test [6] can be described thus: Cytotoxicity against human QSG7701 cells after 48 hrs by MTT assay. It counts as cell-based. Conditions: QSG7701, 48 h.
For test [7], the system named is B16. Briefly: Cell cycle arrest in mouse B16 cells by accumulation at S phase at 1.0 uM after 48 hrs by flow cytometry. It counts as functional. In general terms: Flow cytometry measures light scatter and fluorescence of single cells or particles in a stream.
Test [8] concerns B16. Description: Induction of apoptosis in mouse B16 cells assessed as increase in mitochondrial cytochrome-C release after 48 hrs by Western blot relative to control. The class given is functional, cell-based.
Test [9] concerns B16. Briefly: Induction of apoptosis in mouse B16 cells assessed as sub-G1 DNA content at 1.0 uM after 48 hrs by flow cytometry. It counts as functional.
Test [10] relates to B16. Description: Cell cycle arrest in mouse B16 cells by accumulation at G2/M phase at 0.5 uM after 48 hrs by flow cytometry. The class given is functional.
Test [11] relates to B16. Briefly: Cell cycle arrest in mouse B16 cells by accumulation at S phase at 0.5 uM after 48 hrs by flow cytometry. It counts as functional.
Test [12] relates to B16. Description: Cell cycle arrest in mouse B16 cells by accumulation at G0/G1 phase at 0.5 uM after 48 hrs by flow cytometry. It counts as functional.
Test [13] deals with Calf thymus DNA. Briefly: Binding affinity to calf thymus DNA at 80 uM by spectrophotometry. The class given is nucleic-acid assay. Conditions: Bos taurus.
Test [14] concerns B16. Briefly: Cell cycle arrest in mouse B16 cells by accumulation at S phase at 2.0 uM after 48 hrs by flow cytometry. It counts as functional.
For test [15], the system named is B16. Description: Cell cycle arrest in mouse B16 cells by accumulation at G0/G1 phase at 2.0 uM after 48 hrs by flow cytometry. It counts as functional.
For test [16], the system named is B16. Briefly: Induction of apoptosis in mouse B16 cells assessed as increase in caspase-3 cleavage after 48 hrs by Western blot relative to control. It counts as functional, cell-based.
Test [17] has as its system B16. Briefly: Cell cycle arrest in mouse B16 cells by accumulation at G0/G1 phase at 1.0 uM after 48 hrs by flow cytometry. It counts as functional.
The subject of test [18] is B16. Description: Induction of apoptosis in mouse B16 cells assessed as reduction in Bcl2 level after 48 hrs by Western blot relative to control. The class given is functional, cell-based. A general note: A western blot detects proteins with antibodies after separation by electrophoresis.
For test [19], the system named is B16. Description: Induction of apoptosis in mouse B16 cells assessed as sub-G1 DNA content at 2.0 uM after 48 hrs by flow cytometry. The class given is functional.
In test [20] the test system is B16. Briefly: Induction of apoptosis in mouse B16 cells assessed as increase in caspase-8 cleavage after 48 hrs by Western blot relative to control. It counts as functional, cell-based.
Test [21] has as its system B16. Description: Induction of apoptosis in mouse B16 cells assessed as increase in Bax level after 48 hrs by Western blot relative to control. The class given is functional, cell-based.
Test [22] concerns B16. Briefly: Induction of apoptosis in mouse B16 cells assessed as sub-G1 DNA content at 0.5 uM after 48 hrs by flow cytometry. It counts as functional.
Test [23] deals with B16. Description: Induction of apoptosis in mouse B16 cells assessed as increase in caspase-9 cleavage after 48 hrs by Western blot relative to control. It counts as functional, cell-based.
Test [24] relates to B16. Description: Cell cycle arrest in mouse B16 cells by accumulation at G2/M phase at 1.0 uM after 48 hrs by flow cytometry. It counts as functional.
The test system of test [25] is B16. Description: Cell cycle arrest in mouse B16 cells by accumulation at G2/M phase at 2.0 uM after 48 hrs by flow cytometry. It counts as functional.

Active and inactive are the calls of the source. The calls are words filed in the database; no cut-off is given here. Some results are limits rather than exact numbers.

Usually IC50 stands for the midpoint of a concentration-inhibition curve. Take `NCCCNCCCCN1C(=O)c2cccc3cccc(c23)C1=O`: the half-inhibitory concentration (IC50) amounted to 20.7 µM in [1], 11.4 µM in [2] and 13.9 µM in [3].

With `NCCCCNCCCCNCc1c2ccccc2cc2ccccc12`, the IC50 in test [1] amounted to 1.25 µM; in test [4] it was 8.3 µM; in test [2], 0.95 µM; in [3] it was 1.4 µM.

Regarding `NCCCCNCCCCNCCCN1C(=O)c2cccc3cccc(c23)C1=O`, the IC50 in test [1] was determined as 9.09 µM; in test [2], 9.08 µM; in [3] it was 5.36 µM.

As for `NCCCNCCCCNCCCCN1C(=O)c2cccc3cccc(c23)C1=O`, the figures for the IC50 in test [1], in test [2] and in test [3] were 3.43 µM, 3.84 µM and 2.7 µM, respectively.

For `O=C1NC(=O)c2cccc3cccc1c23`, the IC50 in [1], in [2] and in test [3] was more than 50 µM each time.

As to `NCCCNCCCCNCCCN1C(=O)c2cccc3cccc(c23)C1=O`, the IC50 was 1.21 µM in test [1]; 1.64 µM in [2]; 1.06 µM in test [5]; more than 50 µM in test [6]; 0.62 µM in test [3].

In the case of `Cl.NCCCCNCCCCNCCCCN1C(=O)c2cccc3cccc(c23)C1=O`, the IC50 was 2.58 µM in [1]; 1.16 µM in test [2]; 3.56 µM in [5]; more than 50 µM in [6]; 0.69 µM in test [3]. Moreover, the Activity in test [7] is on record as 9.71%; in test [9] it was 16.84%; in [10], 18.52%; in test [11], 11.7%; in [12] it was 69.78%; in test [14], 7.34%. In addition, the Activity in test [15] is 58.47%; in test [16], “Dose-dependent effect”; in test [17], 65.38%; in test [19], 38.63%; in [20] it was “Dose-dependent effect”; in test [22], 9.68%. For the same molecule, the Activity entry in test [23] was “Dose-dependent effect”; in [24] it was 24.91%; in [25], 34.19%. Moreover, the result in test [8], in test [13], in test [18] and in test [21] was Active.
